Laboratory results taken from the supplement of paper PMC10307832.

Legend:
Test in all cases: relative viability (nuclei count vs DMSO), 5 days (fraction); higher = more cells survive
Erlotinib + Palbociclib = compound: C#Cc1cccc(Nc2ncnc3cc(OCCOC)c(OCCOC)cc23)c1 [Erlotinib] + CC(=O)c1c(C)c2cnc(Nc3ccc(N4CCNCC4)cn3)nc2n(C2CCCC2)c1=O [Palbociclib] (partner 0.5 µM)
Summary of the method: (§1)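 Lung cancer cell lines, seeded in 1536-well plates, were treated the following day by pin tool with a single drug or with five library-drug doses (not always all listed) in √10 steps on top of a fixed anchor-drug dose. Cells were fixed and nuclei stained in one step after 5 days, and nuclei were counted. Relative viability is the nuclei count for treated wells divided by that for vehicle wells, reported as medians of duplicate plates.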

Erlotinib + Tozasertib = compound: C#Cc1cccc(Nc2ncnc3cc(OCCOC)c(OCCOC)cc23)c1 [Erlotinib] + Cc1cc(Nc2cc(N3CCN(C)CC3)nc(Sc3ccc(NC(=O)C4CC4)cc3)n2)n[nH]1 [Tozasertib] (partner 0.1 µM)
Summary of the method: as §1

AT9283 + Crizotinib = compound: O=C(Nc1c[nH]nc1-c1nc2ccc(CN3CCOCC3)cc2[nH]1)NC1CC1 [AT9283] + C[C@@H](Oc1cc(-c2cnn(C3CCNCC3)c2)cnc1N)c1c(Cl)ccc(F)c1Cl [Crizotinib] (partner 1 µM)
Summary of the method: as §1

AT9283 + Phenformin = compound: O=C(Nc1c[nH]nc1-c1nc2ccc(CN3CCOCC3)cc2[nH]1)NC1CC1 [AT9283] + N=C(N)NC(=N)NCCc1ccccc1 [Phenformin] (partner 250 µM)
Summary of the method: as §1

AT9283 + Olaparib = compound: O=C(Nc1c[nH]nc1-c1nc2ccc(CN3CCOCC3)cc2[nH]1)NC1CC1 [AT9283] + O=C(c1cc(Cc2n[nH]c(=O)c3ccccc23)ccc1F)N1CCN(C(=O)C2CC2)CC1 [Olaparib] (partner 8 µM)
Summary of the method: as §1

| Cell Line | relative viability (Erlotinib + Palbociclib; first compound 0.02 µM) | relative viability (Erlotinib + Palbociclib; first compound 0.2 µM) | relative viability (Erlotinib + Palbociclib; first compound 0.6325 µM) | relative viability (Erlotinib + Palbociclib; first compound 2 µM) | relative viability (Erlotinib + Tozasertib; first compound 0.02 µM) | relative viability (Erlotinib + Tozasertib; first compound 0.2 µM) | relative viability (Erlotinib + Tozasertib; first compound 0.6325 µM) | relative viability (Erlotinib + Tozasertib; first compound 2 µM) | relative viability (AT9283 + Crizotinib; first compound 0.003 µM) | relative viability (AT9283 + Crizotinib; first compound 0.03 µM) | relative viability (AT9283 + Crizotinib; first compound 0.09487 µM) | relative viability (AT9283 + Crizotinib; first compound 0.3 µM) | relative viability (AT9283 + Phenformin; first compound 0.003 µM) | relative viability (AT9283 + Phenformin; first compound 0.03 µM) | relative viability (AT9283 + Phenformin; first compound 0.09487 µM) | relative viability (AT9283 + Phenformin; first compound 0.3 µM) | relative viability (AT9283 + Olaparib; first compound 0.003 µM) | relative viability (AT9283 + Olaparib; first compound 0.03 µM) | relative viability (AT9283 + Olaparib; first compound 0.09487 µM) | relative viability (AT9283 + Olaparib; first compound 0.3 µM) |
| --- | --- | --- | --- | --- | --- | --- | --- | --- | --- | --- | --- | --- | --- | --- | --- | --- | --- | --- | --- | --- |
| NCI-H1650 | 0.265 | 0.287 | 0.309 | 0.245 | 0.465 | 0.332 | 0.305 | 0.217 | 1.01 | 0.596 | 0.267 | 0.217 | 0.491 | 0.385 | 0.223 | 0.175 | 0.759 | 0.808 | 0.693 | 0.48 |
| NCI-H838 | 0.225 | 0.205 | 0.225 | 0.211 | 0.293 | 0.273 | 0.283 | 0.25 | 0.877 | 0.367 | 0.246 | 0.186 | 0.564 | 0.23 | 0.165 | 0.17 | 0.745 | 0.323 | 0.183 | 0.164 |
| LXF-289 | 0.583 | 0.566 | 0.531 | 0.539 | 0.195 | 0.218 | 0.208 | 0.117 | 0.829 | 0.511 | 0.151 | 0.138 | 0.528 | 0.447 | 0.0782 | 0.0825 | 1.13 | 0.98 | 0.0877 | 0.0796 |
| SW 1573 | 0.38 | 0.362 | 0.37 | 0.355 | 0.183 | 0.197 | 0.156 | 0.226 | 0.698 | 0.376 | 0.219 | 0.157 | 0.426 | 0.163 | 0.156 | 0.121 | 0.485 | 0.159 | 0.159 | 0.14 |
| 201T | 0.35 | 0.323 | 0.319 | 0.287 | 0.965 | 0.915 | 0.877 | 0.707 | 0.996 | 1.02 | 0.478 | 0.468 | 0.445 | 0.419 | 0.345 | 0.285 | 0.867 | 0.815 | 0.356 | 0.335 |
| COR-L 105 | 0.402 | 0.322 | 0.359 | 0.328 | 0.335 | 0.305 | 0.217 | 0.227 | 0.73 | 0.326 | 0.274 | 0.237 | 0.513 | 0.2 | 0.303 | 0.223 | 0.625 | 0.408 | 0.37 | 0.325 |
| LOU-NH91 | 0.564 | 0.546 | 0.624 | 0.542 | 0.564 | 0.472 | 0.491 | 0.424 | 0.686 | 0.679 | 0.52 | 0.429 | 0.658 | 0.673 | 0.454 | 0.371 | 0.915 | 0.774 | 0.512 | 0.441 |
| PC-3 [JPC-3] | 0.536 | 0.473 | 0.339 | 0.376 | 0.825 | 0.355 | 0.331 | 0.274 | 0.929 | 0.832 | 0.608 | 0.509 | 0.478 | 0.476 | 0.423 | 0.377 | 1.31 | 1.03 | 0.844 | 0.607 |
| NCI-H1666 | 0.624 | 0.613 | 0.631 | 0.74 | 0.551 | 0.523 | 0.498 | 0.482 | 1.08 | 0.777 | 0.377 | 0.311 | 0.587 | 0.516 | 0.404 | 0.35 | 0.739 | 0.724 | 0.608 | 0.533 |
| EPLC-272H | 0.337 | 0.307 | 0.278 | 0.279 | 0.22 | 0.291 | 0.235 | 0.183 | 0.951 | 0.856 | 0.431 | 0.14 | 0.33 | 0.309 | 0.148 | 0.141 | 0.698 | 0.18 | 0.107 | 0.119 |
| HCC-15 | 0.727 | 0.672 | 0.751 | 0.71 | 0.411 | 0.444 | 0.398 | 0.16 | 0.765 | 0.478 | 0.139 | 0.129 | 0.464 | 0.277 | 0.106 | 0.117 | 0.691 | 0.574 | 0.192 | 0.183 |
